# Measured values: ChEMBL document CHEMBL1144582, “Identification of arylsulfonamides as Aquaporin 4 inhibitors” (Bioorg Med Chem Lett, 2007)
# pIC50: −log10 of the molar value.
# How the values were obtained:
# [1] = test system: Oocyte; assay: Inhibition of human AQP4b-mediated water transport in Xenopus oocytes at 20 uM; assay type: cell-based
# [2] = Inhibition of human AQP4b-mediated water transport in Xenopus oocytes; details: Oocyte
pIC50 [2],Structure (SMILES),inhibition [1]
–,CC(=O)Nc1ccc(S(N)(=O)=O)cc1,23%
–,CCOc1ccc2nc(S(N)(=O)=O)sc2c1,68%
6.05,CC(=O)Nc1nnc(S(N)(=O)=O)s1 [ACETAZOLAMIDE],–
